# Article PMC9151520 (Archives of Toxicology, 2022)
# Where “and” joins values, the source holds several entries; their conditions need not be identical. Identical values can stand only once. Counter-ions that a name gives are not always drawn. Like-named read-outs stand apart in the source and are kept apart here.
# Assays:
# [1] = system: p53 signaling (p53RE-bla HCT-116 cells); test: cells; assay type: cell-based
# [2] = system: p53 signaling (p53RE-bla HCT-116 cells)
# [3] = system: p53 signaling (p53RE-bla HCT-116 cells); conditions: for EC50: read-out: p53 activation EC50, HLM
# [4] = Homo sapiens, HCT-116, read-out: p53 activation EC50, cherry pick confirmation
# [5] = Homo sapiens, HCT-116, read-out: p53 activation EC50, primary screening
# [6] = Homo sapiens, HCT-116, read-out: p53 activation efficacy, cherry pick confirmation
# [7] = Homo sapiens, HCT-116, read-out: p53 activation efficacy, primary screening
# [8] = Homo sapiens, HCT-116, read-out: EC50, p53 activation, primary screening
# [9] = Homo sapiens, HCT-116, read-out: Efficacy, p53 activation, primary screening
# [10] = read-out: p53 activation EC50, cherry pick confirmation
# [11] = read-out: p53 activation EC50, primary screening
molecule,measurement,setting,value
CCN(CC)CCCC(C)Nc1c2ccc(Cl)cc2nc2ccc(OC)cc12 (centres unmarked) [Quinacrine dihydrochloride dihydrate],EC50,[1]; [4],8.34 µM
same,EC50,[1]; [5],20.7 µM
same,Emax,[1]; [6],271%
same,Emax,[1]; [7],79.8%
same,"p53 activation EC50, cherry pick confirmation",[2],inactive
same,"p53 activation EC50, primary screening",[2],inactive
same,"p53 activation efficacy, cherry pick confirmation",[2],inactive
same,"p53 activation efficacy, primary screening",[2],inactive
same,"p53 activation EC50, cherry pick confirmation",[3],inactive
same,"p53 activation EC50, primary screening",[3],inactive
same,"p53 activation efficacy, cherry pick confirmation",[3],inactive
same,"p53 activation efficacy, primary screening",[3],inactive
same,"Viability EC50, cherry pick confirmation",p53RE-bla HCT-116 cells,inactive
same,"Viability EC50, primary screening",p53RE-bla HCT-116 cells,inactive
same,"Viability efficacy, cherry pick confirmation",p53RE-bla HCT-116 cells,inactive
same,"Viability efficacy, primary screening",p53RE-bla HCT-116 cells,inactive
CCOC(=O)c1c(N)sc2c1CCN(Cc1ccccc1)C2 [Tinoridine],p53 activation EC50,[1],inactive
same,p53 activation efficacy,[1],inactive
same,p53 activation EC50,[2],inactive
same,p53 activation EC50,[3],inactive
same,Viability EC50,p53RE-bla HCT-116 cells,inactive
same,Viability efficacy,p53RE-bla HCT-116 cells,inactive
"Cc1ccc([N+](=O)[O-])c(C)c1 [1,3-Dimethyl-4-nitrobenzene]","p53 activation EC50, cherry pick confirmation",[1],inactive
same,"p53 activation EC50, primary screening",[1],inactive
same,"p53 activation efficacy, cherry pick confirmation",[1],inactive
same,"p53 activation efficacy, primary screening",[1],inactive
same,"p53 activation EC50, cherry pick confirmation",[2],inactive
same,"p53 activation efficacy, cherry pick confirmation",[2],inactive
same,"p53 activation EC50, cherry pick confirmation",[3],inactive
same,"p53 activation efficacy, cherry pick confirmation",[3],inactive
same,"Viability EC50, cherry pick confirmation",p53RE-bla HCT-116 cells,inactive
same,"Viability EC50, primary screening",p53RE-bla HCT-116 cells,inactive
same,"Viability efficacy, cherry pick confirmation",p53RE-bla HCT-116 cells,inactive
same,"Viability efficacy, primary screening",p53RE-bla HCT-116 cells,inactive
Thimerosal,"p53 activation Efficacy, No MS",[1],73.3573% and 52.656%
same,"p53 activation EC50, RLM",[2],inactive
same,"p53 activation Efficacy, RLM",[2],inactive
same,"p53 activation EC50, HLM",[3],inactive
same,EC50,[3],5.03 µM
same,EC50,"p53RE-bla HCT-116 cells; read-out: Viability EC50, HLM",10.6 µM and 8.9 µM
same,EC50,"p53RE-bla HCT-116 cells; read-out: Viability EC50, No MS",8.56 µM and 9.16 µM
same,EC50,"p53RE-bla HCT-116 cells; read-out: Viability EC50, RLM",8.9 µM
Oc1ccc(Oc2ccccc2)cc1 [4-Phenoxyphenol],"EC50, p53 activation, cherry pick confirmation",[1],inactive
same,"Efficacy, p53 activation, cherry pick confirmation",[1],inactive
same,EC50,[1]; [8],25.6 µM
same,Emax,[1]; [9],32.4%
same,"EC50, p53 activation, cherry pick confirmation",[2],inactive
same,"EC50, p53 activation, primary screening",[2],inactive
same,"Efficacy, p53 activation, cherry pick confirmation",[2],inactive
same,"Efficacy, p53 activation, primary screening",[2],inactive
same,"EC50, p53 activation, cherry pick confirmation",[3],inactive
same,"EC50, p53 activation, primary screening",[3],inactive
same,"Efficacy, p53 activation, cherry pick confirmation",[3],inactive
same,"Efficacy, p53 activation, primary screening",[3],inactive
same,"EC50, viability, cherry pick confirmation",p53RE-bla HCT-116 cells,inactive
same,"EC50, viability, primary screening",p53RE-bla HCT-116 cells,inactive
same,"Efficacy, viability, cherry pick confirmation",p53RE-bla HCT-116 cells,inactive
same,"Efficacy, viability, primary screening",p53RE-bla HCT-116 cells,inactive
COC(=O)Nc1nc2ccccc2[nH]1 [Carbendazim],EC50,[1]; [4],11.9 µM
same,EC50,[1]; [5],10.3 µM
same,Emax,[1]; [6],62.2%
same,Emax,[1]; [7],67%
same,"p53 activation EC50, cherry pick confirmation",[2],inactive
same,"p53 activation EC50, primary screening",[2],inactive
same,"p53 activation efficacy, cherry pick confirmation",[2],inactive
same,"p53 activation efficacy, primary screening",[2],inactive
same,"p53 activation EC50, cherry pick confirmation",[3],inactive
same,"p53 activation EC50, primary screening",[3],inactive
same,"p53 activation efficacy, cherry pick confirmation",[3],inactive
same,"p53 activation efficacy, primary screening",[3],inactive
same,"Viability EC50, cherry pick confirmation",p53RE-bla HCT-116 cells,inactive
same,"Viability EC50, primary screening",p53RE-bla HCT-116 cells,inactive
same,"Viability efficacy, cherry pick confirmation",p53RE-bla HCT-116 cells,inactive
same,"Viability efficacy, primary screening",p53RE-bla HCT-116 cells,inactive
CC(=O)[O][Sn]([c]1ccccc1)([c]1ccccc1)[c]1ccccc1 [Triphenyltin acetate],"p53 activation efficacy, cherry pick confirmation",[1],67.021
same,"p53 activation efficacy, primary screening",[1],86.4573
same,EC50,[1]; [10],14.4 µM
same,EC50,[1]; [11],22 µM
same,"p53 activation EC50, cherry pick confirmation",[2],inactive
same,"p53 activation EC50, primary screening",[2],inactive
same,"p53 activation efficacy, cherry pick confirmation",[2],inactive
same,"p53 activation efficacy, primary screening",[2],inactive
same,"p53 activation EC50, cherry pick confirmation",[3],inactive
same,"p53 activation EC50, primary screening",[3],inactive
same,"p53 activation efficacy, cherry pick confirmation",[3],inactive
same,"p53 activation efficacy, primary screening",[3],inactive
same,EC50,"p53RE-bla HCT-116 cells; read-out: Viability EC50, cherry pick confirmation",5.01 µM and 5.33 µM and 6.71 µM
same,EC50,"p53RE-bla HCT-116 cells; read-out: Viability EC50, primary screening",5.39 µM and 7.79 µM and 6.43 µM
Cc1cc(=O)oc2cc(N(C)C)ccc12 [7-(Dimethylamino)-4-methylcoumarin],"p53 activation efficacy, cherry pick confirmation",[1],79.8427
same,"p53 activation efficacy, primary screening",[1],78.774
same,EC50,[1]; [10],29.5 µM
same,EC50,[1]; [11],35.2 µM
same,"p53 activation EC50, cherry pick confirmation",[2],inactive
same,"p53 activation efficacy, cherry pick confirmation",[2],inactive
same,"p53 activation EC50, cherry pick confirmation",[3],inactive
same,"p53 activation efficacy, cherry pick confirmation",[3],inactive
same,"Viability EC50, cherry pick confirmation",p53RE-bla HCT-116 cells,inactive
same,"Viability EC50, primary screening",p53RE-bla HCT-116 cells,inactive
same,"Viability efficacy, cherry pick confirmation",p53RE-bla HCT-116 cells,inactive
same,"Viability efficacy, primary screening",p53RE-bla HCT-116 cells,inactive
CCN(CC)c1ccc2c(C)cc(=O)oc2c1 [7-Diethylamino-4-methylcoumarin],EC50,"[1]; read-out: p53 activation EC50, No MS",13 µM and 25.2 µM
same,"p53 activation EC50, RLM",[2],inactive
same,"p53 activation Efficacy, RLM",[2],inactive
same,"p53 activation EC50, HLM",[3],inactive
same,EC50,[3],41.1 µM
same,"Viability EC50, HLM",p53RE-bla HCT-116 cells,inactive
same,"Viability EC50, No MS",p53RE-bla HCT-116 cells,inactive
same,"Viability EC50, RLM",p53RE-bla HCT-116 cells,inactive
same,"Viability Efficacy, HLM",p53RE-bla HCT-116 cells,inactive
same,"Viability Efficacy, No MS",p53RE-bla HCT-116 cells,inactive
same,"Viability Efficacy, RLM",p53RE-bla HCT-116 cells,inactive
CCC(C)c1cc([N+](=O)[O-])cc([N+](=O)[O-])c1OC(=O)OC(C)C (centres unmarked) [Dinobuton],"p53 activation EC50, cherry pick confirmation",[1],inactive
same,"p53 activation efficacy, cherry pick confirmation",[1],inactive
same,EC50,[1]; [5],49.5 µM
same,Emax,[1]; [7],74.7%
same,"p53 activation EC50, cherry pick confirmation",[2],inactive
same,"p53 activation EC50, primary screening",[2],inactive
same,"p53 activation efficacy, cherry pick confirmation",[2],inactive
same,"p53 activation efficacy, primary screening",[2],inactive
same,"p53 activation EC50, cherry pick confirmation",[3],inactive
same,"p53 activation EC50, primary screening",[3],inactive
same,"p53 activation efficacy, cherry pick confirmation",[3],inactive
same,"p53 activation efficacy, primary screening",[3],inactive
same,"Viability EC50, cherry pick confirmation",p53RE-bla HCT-116 cells,inactive
same,"Viability EC50, primary screening",p53RE-bla HCT-116 cells,inactive
same,"Viability efficacy, cherry pick confirmation",p53RE-bla HCT-116 cells,inactive
same,"Viability efficacy, primary screening",p53RE-bla HCT-116 cells,inactive
COC(=O)Nc1nc2ccc(Sc3ccccc3)cc2[nH]1 [Fenbendazole],"EC50, p53 activation, cherry pick confirmation",[1],inactive
same,"Efficacy, p53 activation, cherry pick confirmation",[1],inactive
same,EC50,[1]; [8],0.35 µM
same,Emax,[1]; [9],71%
same,"EC50, p53 activation, cherry pick confirmation",[2],inactive
same,"EC50, p53 activation, primary screening",[2],inactive
same,"Efficacy, p53 activation, cherry pick confirmation",[2],inactive
same,"Efficacy, p53 activation, primary screening",[2],inactive
same,"EC50, p53 activation, cherry pick confirmation",[3],inactive
same,"EC50, p53 activation, primary screening",[3],inactive
same,"Efficacy, p53 activation, cherry pick confirmation",[3],inactive
same,"Efficacy, p53 activation, primary screening",[3],inactive
same,"EC50, viability, cherry pick confirmation",p53RE-bla HCT-116 cells,inactive
same,"EC50, viability, primary screening",p53RE-bla HCT-116 cells,inactive
same,"Efficacy, viability, cherry pick confirmation",p53RE-bla HCT-116 cells,inactive
same,"Efficacy, viability, primary screening",p53RE-bla HCT-116 cells,inactive
C=C(CC)C(=O)c1ccc(OCC(=O)O)c(Cl)c1Cl [Ethacrynic acid],"p53 activation EC50, cherry pick confirmation",[1],inactive
same,"p53 activation efficacy, cherry pick confirmation",[1],inactive
same,EC50,[1]; [5],8.57 µM
same,Emax,[1]; [7],27.2%
same,"p53 activation EC50, cherry pick confirmation",[2],inactive
same,"p53 activation EC50, primary screening",[2],inactive
same,"p53 activation efficacy, cherry pick confirmation",[2],inactive
same,"p53 activation efficacy, primary screening",[2],inactive
same,"p53 activation EC50, cherry pick confirmation",[3],inactive
same,"p53 activation EC50, primary screening",[3],inactive
same,"p53 activation efficacy, cherry pick confirmation",[3],inactive
same,"p53 activation efficacy, primary screening",[3],inactive
same,"Viability EC50, cherry pick confirmation",p53RE-bla HCT-116 cells,inactive
same,"Viability EC50, primary screening",p53RE-bla HCT-116 cells,inactive
same,"Viability efficacy, cherry pick confirmation",p53RE-bla HCT-116 cells,inactive
same,"Viability efficacy, primary screening",p53RE-bla HCT-116 cells,inactive
CC(=O)OC[C@H]1O[C@@H](n2ncc(=O)[nH]c2=O)[C@H](OC(C)=O)[C@@H]1OC(C)=O [6-Azaribine],EC50,[1]; [4],0.603 µM
same,EC50,[1]; [5],0.432 µM
same,Emax,[1]; [6],79.7%
same,Emax,[1]; [7],60.2%
same,"p53 activation EC50, cherry pick confirmation",[2],inactive
same,"p53 activation EC50, primary screening",[2],inactive
same,"p53 activation efficacy, cherry pick confirmation",[2],inactive
same,"p53 activation efficacy, primary screening",[2],inactive
same,"p53 activation EC50, cherry pick confirmation",[3],inactive
same,"p53 activation EC50, primary screening",[3],inactive
same,"p53 activation efficacy, cherry pick confirmation",[3],inactive
same,"p53 activation efficacy, primary screening",[3],inactive
same,"Viability EC50, cherry pick confirmation",p53RE-bla HCT-116 cells,inactive
same,"Viability EC50, primary screening",p53RE-bla HCT-116 cells,inactive
same,"Viability efficacy, cherry pick confirmation",p53RE-bla HCT-116 cells,inactive
same,"Viability efficacy, primary screening",p53RE-bla HCT-116 cells,inactive
COC(=O)/C=C(\C)OP(=O)(OC)OC [Mevinphos],p53 activation EC50,[1],inactive
same,p53 activation efficacy,[1],inactive
same,EC50,[2],7.96 µM
same,p53 activation efficacy,[2],77.3871 and 64.7167
same,p53 activation EC50,[3],inactive
same,Viability EC50,p53RE-bla HCT-116 cells,inactive
same,Viability efficacy,p53RE-bla HCT-116 cells,inactive
